Results from PubChem BioAssay (NCI).
Several values for one entry are separate records, joined by “and”; a condition that tells them apart may be missing. Equal entries are not always repeated.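 Cultured in 96-well plates, cells were exposed to test compound for 48 hours across five concentrations. GI50 = concentration required for 50% inhibition of growth. TGI is the concentration that stops growth completely.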

What was measured:
Test in all cases: DTP human tumour cell line panel, 48 h
A549 NSCLC = system: A549 NSCLC
COLO 205 colon = system: COLO 205 colon
UACC-257 melanoma = system: UACC-257 melanoma
TK-10 renal = system: TK-10 renal
UO-31 renal = system: UO-31 renal
OVCAR-5 ovarian = system: OVCAR-5 ovarian
HCC-2998 colon = system: HCC-2998 colon
HS 578T breast = system: HS 578T breast
RXF 393 renal = system: RXF 393 renal
NCI-H23 lung = system: NCI-H23 lung

Row | Structure (SMILES) | TGI (A549 NSCLC) | TGI (COLO 205 colon) | TGI (UACC-257 melanoma) | TGI (TK-10 renal) | TGI (UO-31 renal) | TGI (OVCAR-5 ovarian) | TGI (HCC-2998 colon) | TGI (HS 578T breast) | TGI (RXF 393 renal) | TGI (NCI-H23 lung) | GI50 (A549 NSCLC) | GI50 (UO-31 renal) | GI50 (OVCAR-5 ovarian) | GI50 (COLO 205 colon) | GI50 (UACC-257 melanoma) | GI50 (TK-10 renal) | GI50 (NCI-H23 lung) | GI50 (HCC-2998 colon) | GI50 (HS 578T breast)
1 | c1cnc2c(c1)-n1cccc1C1(CCCCC1)NN2 | > 100 µM | > 100 µM | > 100 µM | > 100 µM | 79.9 µM | > 100 µM | > 100 µM |  |  |  |  |  |  |  |  |  |  |  | 
2 | Oc1ccc(Cl)cc1C=Nc1cnc2ccccc2c1 | > 100 µM | > 100 µM | 45.3 µM | > 100 µM | > 100 µM | > 100 µM |  | > 100 µM | > 100 µM | > 100 µM |  |  |  |  |  |  |  |  | 
3 | Cc1c(C)c([N+](=O)[O-])c2c(c1N)C(=O)c1ccccc1C2=O | > 100 µM | > 100 µM | > 100 µM | > 100 µM | > 100 µM | > 100 µM | > 100 µM |  | > 100 µM | > 100 µM |  |  |  |  |  |  |  |  | 
4 | COC(=O)C1C=CCC2CCCCC21N1CCCC1 (configuration not stated) | > 100 µM | > 100 µM | > 100 µM | > 100 µM | > 100 µM | > 100 µM | > 100 µM |  | > 100 µM |  |  |  |  |  |  |  |  |  | 
5 | Cc1cc(=O)[nH]c(NNC(C#N)c2cccc([N+](=O)[O-])c2)n1 (configuration not stated) | > 100 µM | > 100 µM | > 100 µM | > 100 µM | > 100 µM | > 100 µM |  |  | > 100 µM | > 100 µM |  |  |  |  |  |  |  |  | 
6 | CC(=O)Nc1ccc(C2CC(c3ccc([N+](=O)[O-])cc3)=Nc3ccccc3S2)cc1 (configuration not stated) | 56 µM | > 100 µM | 29.2 µM | 44.4 µM | 27.8 µM | 41.5 µM |  |  | 34.9 µM |  |  |  |  |  |  |  |  |  | 
7 | OCC(O)C(O)C(O)C(/C=N\Nc1ncnc2c(Br)cc(Br)cc12)=N/Nc1ncnc2c(Br)cc(Br)cc12 (configuration not stated) | 21.6 µM and > 100 µM | 13 µM and 22 µM | 33.2 µM and > 100 µM | 28.1 µM and > 100 µM | 54.2 µM and > 100 µM | 46.1 µM and > 100 µM |  | > 100 µM |  |  | 5.04 µM and 15.4 µM | 21.7 µM and > 100 µM | 5.83 µM and 41.2 µM |  |  |  |  |  | 
8 | COC1(OC)C2(Cl)C3=CCCC=C3C1(Cl)C(Cl)=C2Cl | > 100 µM | 37.7 µM | 75.1 µM | > 100 µM | 69 µM | 83.9 µM | > 100 µM |  | 47.8 µM | 62.2 µM |  |  |  |  |  |  |  |  | 
9 | O=C(c1ccccc1)C1N=NN(Cc2ccccc2[N+](=O)[O-])C1C(=O)c1ccccc1 (configuration not stated) | > 100 µM | > 100 µM | > 100 µM | > 100 µM | > 100 µM | > 100 µM | > 100 µM |  | > 100 µM | > 100 µM |  |  |  |  |  |  |  |  | 
10 | CCOc1c(Br)cc(Br)cc1C=C(C#N)C#N | > 10 µM | > 10 µM |  | > 10 µM |  |  | > 10 µM | > 10 µM | > 10 µM | > 10 µM |  |  |  |  |  |  |  |  | 
11 | CN(C)C(=S)/N=c1\ss/c(=N\C(=S)N(C)C)n1-c1cccc(Cl)c1 | > 100 µM | > 100 µM | > 100 µM | > 100 µM | > 100 µM | > 100 µM | > 100 µM |  | > 100 µM | > 100 µM |  |  |  |  |  |  |  |  | 
12 | CC(C)(C)C#COC(=O)c1ccccc1 | > 100 µM | > 100 µM | > 100 µM |  | > 100 µM | > 100 µM | > 100 µM |  |  | > 100 µM |  |  |  |  |  |  |  |  | 
13 | CC(=O)[CH-]C(C)=O.CC(=O)[CH-]C(C)=O.[O-]c1ccccc1.[O-]c1ccccc1.[Ti+4] | > 100 µM | > 100 µM | > 100 µM | > 100 µM | > 100 µM | > 100 µM | > 100 µM |  |  | > 100 µM | > 100 µM | > 100 µM | > 100 µM | > 100 µM | > 100 µM | > 100 µM | > 100 µM | > 100 µM | 
14 | O=c1c(-c2ccc3c(c2)OCO3)coc2c3c(ccc12)OCO3 | > 100 µM | > 100 µM | > 100 µM | 36.8 µM | > 100 µM | > 100 µM | > 100 µM | 59.4 µM |  | 40 µM |  |  |  |  |  |  |  |  | 
15 | COc1c2ccoc2nc2c(OC)c(OCC(O)C(C)(C)O)ccc12 (configuration not stated) | > 100 µM | > 100 µM | > 100 µM | > 100 µM | > 100 µM | > 100 µM | > 100 µM | > 100 µM |  | > 100 µM |  |  |  |  |  |  |  |  | 
16 | Cc1n[nH]c2ccccc2c1=O | > 100 µM | > 100 µM | > 100 µM | > 100 µM | > 100 µM | > 100 µM |  | > 100 µM | > 100 µM | > 100 µM |  |  |  |  |  |  |  |  | 
17 | COc1cc2c(cc1C)NC(=O)/C2=C/c1ccnc2ccccc12 | > 50 µM | > 50 µM | 48.9 µM | > 50 µM | > 50 µM | > 50 µM | > 50 µM | > 50 µM |  | > 50 µM | 20.8 µM | 18.9 µM | 30 µM | 38.9 µM | 9.77 µM | 35.8 µM | 25.5 µM | 35.7 µM | 40.1 µM
18 | CN1CCCC2[C@@H]3CCC4c5nonc5CC[C@]4(C)C3CC[C@@]21C (some centres not stated) | > 100 µM | > 100 µM | > 100 µM | > 100 µM | > 100 µM | > 100 µM |  |  | > 100 µM | > 100 µM |  |  |  |  |  |  |  |  | 
19 | O=c1[nH]ccc(CNC23CC4CC(CC(C4)C2)C3)c1O | > 100 µM | > 100 µM | > 100 µM | > 100 µM | > 100 µM | > 100 µM | > 100 µM |  | > 100 µM | > 100 µM |  |  |  |  |  |  |  |  | 
20 | N/N=C(/Cc1ccccc1)NNO | > 100 µM | > 100 µM | > 100 µM | > 100 µM |  | > 100 µM | > 100 µM |  | > 100 µM | > 100 µM |  |  |  |  |  |  |  |  | 
21 | O=c1c(Cc2ccccc2)c(O)cc2n1CCC2 | > 100 µM | > 100 µM | > 100 µM | > 100 µM | > 100 µM | > 100 µM | > 100 µM |  | > 100 µM | > 100 µM |  |  |  |  |  |  |  |  | 
22 | O=C1CC23CCCCCCCCCCC2(C1)CC(=O)C3 (configuration not stated) | > 100 µM | 33.5 µM | > 100 µM | > 100 µM | 61.2 µM | 72.1 µM | > 100 µM |  | 89.2 µM | > 100 µM |  |  |  |  |  |  |  |  | 
23 | c1ccc2c(c1)[nH]c1c2nc2ccccn21 | > 100 µM | > 100 µM | > 100 µM | > 100 µM | > 100 µM | > 100 µM | > 100 µM |  | > 100 µM | > 100 µM |  |  |  |  |  |  |  |  | 
